Source: paper PMC11189555, “Aryl amino acetamides prevent Plasmodium falciparum ring development via targeting the lipid-transfer protein PfSTART1” (Nature Communications, 2024)
Values joined by “and” are separate entries in the source; they are usually repeats but may differ in a detail not shown here. Identical values can stand only once.

Tests used:
[1] = system: processed PfSTART1 (proc1, proc2) in schizonts; test: Processing of PfSTART1 along schizogony with egress inhibitors (Western blot densitometry); type: cell-based, Plasmodium falciparum; conditions: for Normalised by EXP2: START full length / Normalised by EXP2: START processed 1 / Normalised by EXP2: START processed 2 / Normalised by EXP2 and full length: START processed 1 / Normalised by EXP2 and full length: START processed 2 / Raw densitometry: START full length / Raw densitometry: START processed 1 / Raw densitometry: START processed 2: biological replicates 1-5
Protocol: Magnet-purified schizonts were harvested after a 4 h treatment with the following: DMSO (0.1%), 49c (10 nM), C1 (1.5 μM) or E64 (10 μM). Parasites were washed in ice-cold PBS + PI (centrifugation steps carried out at 4 °C at 3,000 g). Samples were resuspended in NRSB, sonicated, boiled 10 min at 80 °C and separated by electrophoresis as explained previously. The parasites used in this experiment were 3D7 transfected with p1.2-ABH(WT)-83-HA-glmS, i.e. parasites containing a recodonised version of PF3D7_0403800 within its genome. […]
(DMSO). Schizonts were saponin -lysed. (E) Synchronised 3D7 schizonts were magnet-purified, stalled at different stages of egress: 4 h with 10 nM 49c (plasmepsin X inhibitor), 1.5 µM compound 1 (C1; PKG inhibitor), 10 µM E64, or allowed to progress (DMSO). Whole cells were harvested. PEXEL-cleaved, and the two further processed forms of PfSTART1 are indicated by solid and empty arrows respectively.
(F) Densitometry of processed PfSTART1 (proc1 and proc2) was normalised to the corresponding PEXEL-cleaved PfSTART1. n=10 replicates (n=6 for the 49c treatment). Two-way ANOVA with Šídák's multiple comparisons test (compare each

[2] = system: P. berghei sporozoites invading HC-04 human liver cells; test: In vitro liver invasion assay; type: cell-based, Plasmodium berghei; conditions: Replicate 1 and 2
Protocol: P. berghei ANKA constitutively expressing mCherry[82] was used for the in vitro liver stage invasion assay. Animals used for the generation of the sporozoites were 4- to 5-week-old male Swiss Webster mice and were purchased from the Monash Animal Services (Melbourne, Victoria, Australia) and housed at 22 to 25 °C on a 12 h light/dark cycle with 40-70% humidity at the School of Biosciences, The University of Melbourne, Australia. All animal experiments were in accordance with the Prevention of Cruelty to Animals Act 1986, the Prevention of Cruelty to Animals Regulations 2008, and National Health and Medical Research Council (2013) Australian code for the care and use of animals for scientific purposes. These experiments were reviewed and permitted by the Melbourne University Animal Ethics Committee (2015123).
Infections of naïve Swiss mice were carried out by intraperitoneal (IP) inoculation obtained from a donor mouse between the first and fourth passages from cryopreserved stock. Parasitemia was monitored by Giemsa smear and exflagellation quantified 3 days post-infection. A. stephensi mosquitoes were allowed to feed on anaesthetised mice once the exflagellation rate was assessed between about 12 to 15 exflagellation events per 1 × 10^4 RBCs. Salivary glands of infected mosquitoes (days 17 to 24 post-infection) were isolated by dissection and parasites placed into RPMI-1640 media.
This was performed essentially as described[83] with the minor variations outlined in the Supplementary Information. […]
In vitro liver invasion assays. This was performed essentially as described16 with the following variations. In vitro human liver HCO4 cells (ATCC) were seeded at 1 × 10^5 cells/mL, grown for 24 h and then infected for 2 h with 30,000 Pb ANKA mCherry […]
expressing sporozoites. Following fixation, an IFA with anti -CSP antibody (1:500) followed by anti-mouse Alexafluor 488 (1:1 ,000; Invitrogen, Carlsbad, CA, USA) labels uninvaded parasites. Fluorescence signal was assessed using an Olympus CKX41 epifluorescence microscope. […]
Gametogenesis was then triggered by the addition of 10 μL ookinete medium (gametocyte culture medium supplemented with 100 μM xanthurenic acid and 0.27 µg/mL Cy3-labelled anti-Pfs25 antibody) to each well at room temperature. Plates were then cooled on a metal block at 4°C for four min to ensure even cooling and then stabilised for a further 4 min at 28°C. At 20 min post-induction, male gametogenesis was recorded in each well by automated brightfield microscopy using a x4 objective lens and 1.5x magnifier (x6 effective magnification). Afterward, plates were incubated in the dark at room temperature for 24 h and then female gametogenesis recorded in each well by automated fluorescence microscopy (anti-Pfs25-positive cells). All experiments were performed in quadruplicate with DMSO and cabamiquine (DDD107498)17 as negative and positive controls respectively. All data was evaluated in comparison to the positive and negative controls to calculate percentage inhibition of male and female gametocytes, and dose response analysis and IC50 calculation performed using GraphPad Prism. […]
The pellet was subjected to five

[3] = schizonts treated 4 h: 49c 10 nM, C1 1.5 μM, E64 10 μM, vs DMSO and other treatments

Q: With `CC(C)C[C@H](NC(=O)[C@H]1O[C@@H]1C(=O)O)C(=O)NCCCCN=C(N)N` [E64] as the compound, how does the “Normalised by EXP2: START full length” value ([1]; BLOT AMA1, '+' lane) read?
A: 9.91E+01 and 2.44E+01 and 1.44E+02 and 6.49E+01 and 9.10E+02

Q: And the “Normalised by EXP2: START processed 1” value ([1]; BLOT AMA1, '+' lane)?
A: 5.50E+01 and 7.11E+00 and 4.58E+01 and 1.53E+01 and 3.44E+02

Q: And the “Normalised by EXP2: START processed 2” value ([1]; BLOT AMA1, '+' lane)?
A: 9.13E+01 and 1.13E+01 and 7.80E+01 and 1.03E+01 and 3.88E+02

Q: And the “Normalised by EXP2 and full length: START processed 1” value ([1]; BLOT AMA1, '+' lane)?
A: 5.54E+01 and 2.91E+01 and 3.18E+01 and 2.36E+01 and 3.78E+01

Q: What about the “Normalised by EXP2 and full length: START processed 2” value ([1]; BLOT AMA1, '+' lane) of the same compound?
A: 9.21E+01 and 4.63E+01 and 5.42E+01 and 1.59E+01 and 4.26E+01

Q: And the “Raw densitometry: START full length” value ([1]; BLOT AMA1, '+' lane)?
A: 9.54 and 2.49E+01 and 26.4 and 2.01E+01 and 2.02E+01

Q: And the “Raw densitometry: START processed 1” value ([1]; BLOT AMA1, '+' lane)?
A: 2.78 and 7.92E+00 and 6.24 and 7.59E+00 and 1.12E+01

Q: What about the “Raw densitometry: START processed 2” value ([1]; BLOT AMA1, '+' lane) of the same compound?
A: 4.42 and 1.35E+01 and 4.19 and 8.56E+00 and 1.86E+01

Q: And the “Normalised by EXP2: START full length” value ([1]; BLOT AMA1, '-' lane)?
A: 1.05E+02 and 2.53E+01 and 1.75E+02 and 7.60E+01 and 6.88E+02

Q: And the “Normalised by EXP2: START processed 1” value ([1]; BLOT AMA1, '-' lane)?
A: 6.93E+01 and 7.41E+00 and 5.19E+01 and 1.82E+01 and 2.72E+02

Q: And the “Normalised by EXP2: START processed 2” value ([1]; BLOT AMA1, '-' lane)?
A: 9.19E+01 and 9.39E+00 and 9.29E+01 and 7.65E+00 and 2.73E+02

Q: And the “Normalised by EXP2 and full length: START processed 1” value ([1]; BLOT AMA1, '-' lane)?
A: 6.61E+01 and 2.93E+01 and 2.98E+01 and 2.39E+01 and 3.96E+01

Q: What about the “Normalised by EXP2 and full length: START processed 2” value ([1]; BLOT AMA1, '-' lane) of the same compound?
A: 8.76E+01 and 3.72E+01 and 5.32E+01 and 1.01E+01 and 3.96E+01

Q: What about the “Raw densitometry: START full length” value ([1]; BLOT AMA1, '-' lane) of the same compound?
A: 8.29 and 2.80E+01 and 29.3 and 1.80E+01 and 2.42E+01

Q: What about the “Raw densitometry: START processed 1” value ([1]; BLOT AMA1, '-' lane) of the same compound?
A: 2.43 and 8.33E+00 and 7.01 and 7.12E+00 and 1.60E+01

Q: What about the “Raw densitometry: START processed 2” value ([1]; BLOT AMA1, '-' lane) of the same compound?
A: 3.08 and 1.49E+01 and 2.95 and 7.13E+00 and 2.12E+01

Q: And the “Normalised by EXP2: START full length” value ([1]; BLOT Rh5, '+' lane)?
A: 7.41E+01 and 1.24E+02 and 2.65E+01 and 1.82E+02 and 1.65E+02

Q: What about the “Normalised by EXP2: START processed 1” value ([1]; BLOT Rh5, '+' lane) of the same compound?
A: 5.05E+01 and 4.02E+01 and 7.30E+00 and 3.75E+01 and 7.40E+01

Q: And the “Normalised by EXP2: START processed 2” value ([1]; BLOT Rh5, '+' lane)?
A: 7.26E+01 and 3.45E+01 and 1.15E+01 and 3.53E+01 and 8.50E+01

Q: And the “Normalised by EXP2 and full length: START processed 1” value ([1]; BLOT Rh5, '+' lane)?
A: 6.81E+01 and 3.26E+01 and 2.75E+01 and 2.05E+01 and 4.47E+01

Q: And the “Normalised by EXP2 and full length: START processed 2” value ([1]; BLOT Rh5, '+' lane)?
A: 9.79E+01 and 2.79E+01 and 4.33E+01 and 1.93E+01 and 5.14E+01

Q: And the “Raw densitometry: START full length” value ([1]; BLOT Rh5, '+' lane)?
A: 12.9 and 1.34E+01 and 3.87E+01 and 2.57E+01 and 1.42E+01

Q: And the “Raw densitometry: START processed 1” value ([1]; BLOT Rh5, '+' lane)?
A: 4.2 and 3.69E+00 and 7.95E+00 and 1.15E+01 and 9.67E+00

Q: And the “Raw densitometry: START processed 2” value ([1]; BLOT Rh5, '+' lane)?
A: 3.6 and 5.80E+00 and 7.48E+00 and 1.32E+01 and 1.39E+01

Q: What about the “Normalised by EXP2: START full length” value ([1]; BLOT Rh5, '-' lane) of the same compound?
A: 8.04E+01 and 1.20E+02 and 3.28E+01 and 2.15E+02 and 2.08E+02

Q: And the “Normalised by EXP2: START processed 1” value ([1]; BLOT Rh5, '-' lane)?
A: 5.15E+01 and 3.77E+01 and 7.46E+00 and 4.92E+01 and 7.28E+01

Q: What about the “Normalised by EXP2: START processed 2” value ([1]; BLOT Rh5, '-' lane) of the same compound?
A: 6.74E+01 and 3.23E+01 and 1.26E+01 and 2.81E+01 and 6.72E+01

Q: And the “Normalised by EXP2 and full length: START processed 1” value ([1]; BLOT Rh5, '-' lane)?
A: 6.41E+01 and 3.14E+01 and 2.27E+01 and 2.28E+01 and 3.49E+01

Q: What about the “Normalised by EXP2 and full length: START processed 2” value ([1]; BLOT Rh5, '-' lane) of the same compound?
A: 8.38E+01 and 2.69E+01 and 3.85E+01 and 1.30E+01 and 3.22E+01

Q: What about the “Raw densitometry: START full length” value ([1]; BLOT Rh5, '-' lane) of the same compound?
A: 9.62 and 1.50E+01 and 4.00E+01 and 3.32E+01 and 1.67E+01

Q: And the “Raw densitometry: START processed 1” value ([1]; BLOT Rh5, '-' lane)?
A: 3.02 and 3.41E+00 and 9.14E+00 and 1.16E+01 and 1.07E+01

Q: What about the “Raw densitometry: START processed 2” value ([1]; BLOT Rh5, '-' lane) of the same compound?
A: 2.59 and 5.78E+00 and 5.21E+00 and 1.07E+01 and 1.40E+01

Q: And the “level of PfSTART1proc1 normalised to PEXEL-cleaved PfSTART1” value [1, 3]?
A: contained most of both processed bands

Q: And the “level of PfSTART1proc2 normalised to PEXEL-cleaved PfSTART1” value [1, 3]?
A: significant enrichment in PfSTART1proc2

Q: With `C=C1[C@@H](C)[C@H]2[C@H](Cc3ccccc3)NC(=O)[C@]23[C@H](OC(C)=O)/C=C/[C@@](C)(O)C(=O)[C@@H](C)C/C=C/[C@H]3[C@@H]1O` [cytD, cytochalasin D, reference compound] as the compound, how does the “Liver stage invasion assay: in” value ([2]; count of sporozoites inside cells) read?
A: 2

Q: What about the “Liver stage invasion assay: out” value ([2]; count of sporozoites outside cells) of the same compound?
A: 118 and 305

Q: And the “Liver stage invasion assay: ratio” value ([2]; in relative to in + out)?
A: 1.667 and 0.6515
